Data from the supplement of paper PMC10307832.

Key:
Assay in all cases: relative viability (nuclei count vs DMSO), 5 days (fraction); higher = more cells survive
[1] = compound: C1=CC=C2C(=C1)N=C(S2)C(C#N)C3=NC(=NC=C3)NCCC4=CN=CC=C4 + CS(=O)(=O)N1CCN(Cc2cc3nc(-c4cccc5[nH]ncc45)nc(N4CCOCC4)c3s2)CC1 [Pictilisib] (partner 1 µM)
In short: (§1)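 Medians of duplicate plates are given as relative viability. That measure is the nuclei count in treated wells divided by the count in vehicle wells. Counts were taken on 4× images of lung cancer cell lines in 1536-well plates, 5 days after pin-tool dosing the day after seeding with one drug alone or a fixed anchor-drug dose plus five library-drug doses (not always all listed) in √10 steps.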

Vandetanib + Decitabine = compound: COc1cc2/c(=N/c3ccc(Br)cc3F)nc[nH]c2cc1OCC1CCN(C)CC1 [Vandetanib] + Nc1ncn([C@H]2C[C@H](O)[C@@H](CO)O2)c(=O)n1 [Decitabine] (partner 2 µM)
In short: as §1

NVP-TAE684 + Lapatinib = compound: COc1cc(N2CCC(N3CCN(C)CC3)CC2)ccc1Nc1ncc(Cl)c(Nc2ccccc2S(=O)(=O)C(C)C)n1 [NVP-TAE684] + CS(=O)(=O)CCNCc1ccc(-c2ccc3ncnc(Nc4ccc(OCc5cccc(F)c5)c(Cl)c4)c3c2)o1 [Lapatinib] (partner 2 µM)
In short: as §1

Vandetanib + Crizotinib = compound: COc1cc2/c(=N/c3ccc(Br)cc3F)nc[nH]c2cc1OCC1CCN(C)CC1 [Vandetanib] + C[C@@H](Oc1cc(-c2cnn(C3CCNCC3)c2)cnc1N)c1c(Cl)ccc(F)c1Cl [Crizotinib] (partner 1 µM)
In short: as §1

Cell Line	relative viability ([1]; first compound 0.005 µM)	relative viability ([1]; first compound 0.01581 µM)	relative viability ([1]; first compound 0.05 µM)	relative viability ([1]; first compound 0.1581 µM)	relative viability ([1]; first compound 0.5 µM)	relative viability (Vandetanib + Decitabine; first compound 0.02 µM)	relative viability (Vandetanib + Decitabine; first compound 0.06325 µM)	relative viability (Vandetanib + Decitabine; first compound 0.2 µM)	relative viability (Vandetanib + Decitabine; first compound 0.6325 µM)	relative viability (Vandetanib + Decitabine; first compound 2 µM)	relative viability (NVP-TAE684 + Lapatinib; first compound 0.2 µM)	relative viability (NVP-TAE684 + Lapatinib; first compound 0.6325 µM)	relative viability (NVP-TAE684 + Lapatinib; first compound 2 µM)	relative viability (Vandetanib + Crizotinib; first compound 0.02 µM)	relative viability (Vandetanib + Crizotinib; first compound 0.06325 µM)	relative viability (Vandetanib + Crizotinib; first compound 0.2 µM)	relative viability (Vandetanib + Crizotinib; first compound 0.6325 µM)	relative viability (Vandetanib + Crizotinib; first compound 2 µM)
HCC-366	0.138	0.196	0.181	0.159	0.117	0.291	0.355	0.354	0.332	0.347	1.58	0.932	0.963	0.617	0.569	0.608	0.609	0.518
NCI-H1792	–	0.312	0.285	0.246	0.225	0.487	0.469	0.698	0.53	0.444	0.913	0.825	0.89	0.941	0.973	0.924	0.991	0.894
SK-LU-1	–	0.643	0.6	0.651	0.552	0.605	0.562	0.658	0.612	0.654	0.98	0.873	0.486	1.06	0.667	0.862	0.909	0.732
ABC-1	0.84	0.605	0.758	0.87	0.725	1.14	1.04	1.13	1.4	0.833	1.06	1.33	0.976	1.13	1.05	1	1.34	0.728
